Reference: patent US20220315632A1, “COMBINATION OF DIETARY PEPTIDES” (DIET4LIFE APS, priority 2019, published 2022)
Ends that are not written are not given here. Peptide text beside a SMILES is read from it.

molecular target: murine intestinal cells (Mus musculus, UniProt O88319); experiment: Ca2+ flux / calcium response assay (cell signaling activity) in murine intestinal cells; format: cell-based; settings: FIG. 2, truncation
Sequence (O88319 whole entry, the tested form may be a part): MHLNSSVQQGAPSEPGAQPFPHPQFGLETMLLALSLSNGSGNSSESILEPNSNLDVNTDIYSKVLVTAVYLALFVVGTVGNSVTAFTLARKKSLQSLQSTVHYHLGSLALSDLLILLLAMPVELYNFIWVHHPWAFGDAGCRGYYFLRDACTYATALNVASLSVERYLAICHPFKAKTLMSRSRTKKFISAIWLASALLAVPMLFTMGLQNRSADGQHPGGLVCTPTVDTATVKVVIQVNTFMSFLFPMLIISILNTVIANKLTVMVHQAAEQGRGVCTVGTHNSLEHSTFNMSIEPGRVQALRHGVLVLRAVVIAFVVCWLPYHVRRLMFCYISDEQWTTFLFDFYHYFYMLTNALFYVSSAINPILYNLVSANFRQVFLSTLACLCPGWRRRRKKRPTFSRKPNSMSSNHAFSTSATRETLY
Description: Murine intestinal enteroendocrine L-cell lines that expresses the proglucagon gene and secretes GLP-1 in vitro were used.

Compound | activity compared with the full sequence ASDKPYIL in mIC
CC[C@H](C)[C@H](NC(=O)[C@H](Cc1ccc(O)cc1)NC(=O)[C@@H]1CCCN1)C(=O)N[C@@H](CC(C)C)C(=O)O [PYIL] (H-PYIL-OH) | two orders of magnitude lower activity

test system: human (hIC) intestinal cells; experiment: Ca2+ flux / calcium response assay in human intestinal cells (hIC); format: cell-based; settings: FIG. 2, truncation
Method: Elevation of intracellular calcium level was measured using the fluorescent calcium chelating dye Fluo-4 AM (ThermoFischer Scientific, Denmark). Briefly, cells were grown as a monolayer in 96-well tissue culture plates (Sarstedt, Germany) to near confluence in appropriate growth medium as described in the cell culture section. Prior to the start of the assay, the cells were incubated with 1.5 μM Fluo-4 AM in complete culture media mixed 1:1 with Hank's balanced salt solution (HBSS, ThermoFischer Scientific, Denmark) containing 25 mM HEPES (pH 7.4), 1% BSA (Sigma-Aldrich, Denmark), 2% ink (Soluro GMBH, Germany), 0.01% Pluronic F-127 (Sigma-Aldrich, Denmark) and 1 mM Probenecide (Sigma-Aldrich) for 60 minutes at 37° C.
All test compounds were dissolved in water, and then diluted in 1×HBSS containing 25 mM HEPES (pH 7.4), 1% BSA and 2% ink. Without any removal of excess Fluo-4 AM, test compounds were added directly into the wells and fluorescence were measured using instrument settings for excitation at 488 nm and emission at 525 nm in a microtiter plate reader (SpectraMax M5, Molecular Devices, USA).
Human intestinal cell lines were cultured in McCoy's modified 5A medium supplemented with 10% fetal bovine serum and 1% penicillin/streptomycin/neomycin at 37° C. and 5% CO2 in a humidified incubator.

Compound | activity in hIC
CC[C@H](C)[C@H](NC(=O)[C@H](Cc1ccc(O)cc1)NC(=O)[C@@H]1CCCN1)C(=O)N[C@@H](CC(C)C)C(=O)O [PYIL] (H-PYIL-OH) | no activity

test system: not listed separately; experiment: Stability of peptides in serum (Fetal Bovine Serum), activity remaining; format: in vitro ADME; settings: octapeptides X-SDKPYIL; fraction of peptide activity left after 10 min of incubation in serum at 37° C.
Method: All peptides were incubated at 10^−5 M with Fetal Bovine Serum (FBS; final concentration of 66.7%) (Sigma Aldrich, Denmark) at 37° C. for 3 hours. The peptide degradation was terminated using 1 M phosphoric acid (final 0.4 M, pH ˜1.2) and neutralized to pH 7.2-7.4 with NaOH before testing activity in intestinal cells. As for small intestine homogenates, a zero degradation control was included for each peptide.
DC7-2, NT, DKPYIL and NT-(8-13) (final concentration of 10^−6 M) were incubated either with FBS or with 270× diluted intestinal homogenate at 37° C. for various time points with shaking. Degradation was stopped with 1 M phosphoric acid and the samples were subsequently neutralized and immediately tested with intestinal cells as described above. Control for zero degradation was included for each peptide as above.
The 20 hexapeptides with systematic N-terminal substitutions (X-KPYIL) (Schafer-N, Denmark) and NT (8-13) was incubated at 10^−6 M in either FBS for 10 minutes or with 270× diluted intestinal homogenate for 30 minutes at 37° C. with shaking. The degradation was stopped with 1 M phosphoric acid. Peptide solutions were neutralized with NaOH (pH 7.2-7.4), diluted and immediately tested for bioactivity using murine intestinal cells. Determination of EC50 for stimulation of cells allowed calculation of recovered peptide. Systematic substitutions of N-terminal amino acids in octapeptide […] and their importance for activity and stability. Sequence, activity and stability of DC7-2 is italicized.

Compound | Stability in serum (activity remaining)
ASDKPYIL [compound 36036] | 0.0988 fraction
CSDKPYIL [compound 36037] | 0.0963 fraction
DSDKPYIL [compound 36038] | 0.0947 fraction
ESDKPYIL [compound 36039] | 0.0964 fraction
FSDKPYIL [compound 36040] | 0.0944 fraction
GSDKPYIL [compound 36041] | 0.0912 fraction
HSDKPYIL [compound 36042] | 0.0980 fraction
ISDKPYIL [compound 36043] | 0.0956 fraction
KSDKPYIL [compound 36044] | 0.0527 fraction
LSDKPYIL [compound 36045] | 0.0917 fraction
MSDKPYIL [compound 36046] | 0.0762 fraction
NSDKPYIL [compound 36047] | 0.0872 fraction
PSDKPYIL [compound 36048] | 0.0772 fraction
QSDKPYIL [compound 36049] | 0.0742 fraction
RSDKPYIL [compound 36050] | 0.0735 fraction
SSDKPYIL [compound 36051] | 0.0609 fraction
TSDKPYIL [compound 36052] | 0.0535 fraction
VSDKPYIL [compound 36053] | 0.0488 fraction
WSDKPYIL [compound 36054] | 0.0426 fraction
YSDKPYIL [compound 36055] | 0.0491 fraction

test system: mice; experiment: not given; settings: mouse, in vivo, ip, 128 mg/kg
Method: Liraglutide reached its maximum inhibition of gastric emptying at doses higher than 3 mg/kg retaining approximately 30% of the phenol red marker solution in the stomach. […] A combination test was designed in which DC7-2 was given at EC50 (3 mg/kg) together with different doses of liraglutide (same as used in dose-response test) (FIG. 17 B). […] This was further supported by the different maximum values observed for liraglutide and DC7-2 alone, respectively.

Compound | inhibition of gastric emptying
ASDKPYIL [Peptide ID 36036, A SDKPYIL] | ~50%

test system: Swiss-Webster females; experiment: Chronic feed intake, 3-week daily administration; format: in vivo; settings: FIG. 18; liraglutide 3 μg/mouse s.c., DC7-2 1 mg/mouse i.p., sitagliptin 0.025 mg/mouse
Description: FIG. 18. […] Mice had free access to water and feed in this 3-week study (n=14-18 per group). Significance (P<0.05) is shown as * compared to the corresponding vehicle control.
The effect of DC7-2 alone or in combination with liraglutide on feed intake and body weight was investigated in outbred Swiss-Webster females.

Compound | accumulative feed intake after repeated daily administration
N[C@@H](CC(=O)N1CCn2c(nnc2C(F)(F)F)C1)Cc1cc(F)c(F)cc1F [sitagliptin] | reduces feed intake

test system: pepsin; experiment: Pepsin degradation (proteolytic digest of meat); settings: present in proteolytic digests
Method: Minced meat is diluted 1-10 times with distilled water, adjusted to pH 1-3 with hydrochloric acid, and incubated with 0.01-10% pepsin (w/w) at 4-40° C. for ½-12 h with adequate mixing. Insoluble material is removed by centrifugation at 100-1000 xg for 3-30 min, and supernatant is neutralized with NaOH. Using sterile conditions, low molecular weight peptides in supernatant are recovered by tangential ultrafiltration at 4-40° C. for ½-12 h, and excess water is evaporated at 25-50° C. for up to 12 h. The concentrated dialysate is tested for bioactivity with cells and used for further purification by HPLC.

Compound | pepsin degradation
ASDKPYIL [Peptide ID 36036, A SDKPYIL] | resistant to pepsin degradation

test system: mice; experiment: not given; settings: 1 week of daily exposure in mice; cited from earlier work

Compound | desensitization of glucose homeostasis
exendin-4 | a tendency but not significant difference
